pKi: −log10 of the molar value.

The first assay deals with Neuropeptide Y receptor type 4 (Homo sapiens, UniProt P50391). The assay can be described thus: Affinity for human Neuropeptide Y receptor type 4.
Sequence of Neuropeptide Y receptor type 4 (P50391 whole entry): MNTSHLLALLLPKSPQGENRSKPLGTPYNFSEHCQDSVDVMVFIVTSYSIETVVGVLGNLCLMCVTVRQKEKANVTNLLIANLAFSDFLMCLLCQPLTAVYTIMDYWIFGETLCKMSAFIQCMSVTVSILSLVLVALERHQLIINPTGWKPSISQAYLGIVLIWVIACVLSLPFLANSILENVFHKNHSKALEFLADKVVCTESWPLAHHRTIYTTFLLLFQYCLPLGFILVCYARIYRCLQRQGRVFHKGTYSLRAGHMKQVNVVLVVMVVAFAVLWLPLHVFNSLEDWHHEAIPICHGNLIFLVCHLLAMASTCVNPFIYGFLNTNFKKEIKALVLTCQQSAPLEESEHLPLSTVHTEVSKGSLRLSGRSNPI
`Clc1ccc(OCc2c(CN3CCC(N4CCCCC4)CC3)c3ccccc3n2CCN2CCCCC2)cc1` had a pKi of less than 5.00.
On the same count and under the same terms, with `Cn1c(COc2ccc(Cl)cc2)c(CCN2CCCCC2)c2ccccc21` the figure was less than 5.00.
The same measure, in the same setting: the value for `Cn1c(COc2ccc(Cl)cc2)c(CCN2CCC(N3CCCCC3)CC2)c2ccccc21` was less than 5.00; that for `Cn1c(COc2ccc(Cl)cc2Cl)c(CN2CCCCC2)c2ccccc21` was less than 5.00.
Still for that read-out and setting: with `Cn1c(COc2ccc(Cl)cc2)c(CN2CCC(N3CCCCC3)CC2)c2ccccc21` the figure was less than 5.00; with `Cn1c(COc2ccc(Cl)cc2)c(C(=O)CN2CCC(N3CCCCC3)CC2)c2ccccc21`, less than 5.00; with `O=C(CN1CCC(N2CCCCC2)CC1)c1c(COc2ccc(Cl)cc2)n(CCC[C@@H]2CCCNC2)c2ccccc12`, less than 5.00.
`Cn1c(COc2ccc(Cl)cc2)c(C(=O)C(=O)N2CCC(N3CCCCC3)CC2)c2ccccc21` showed a pKi of less than 5.00.
Same read-out and setting: with `O=C(CN1CCC(N2CCCCC2)CC1)c1c(COc2ccc(Cl)cc2)n(CCC[C@H]2CCCNC2)c2ccccc12` the figure was less than 5.00.
`N=C(N)NCCC[C@@H](NC(=O)C(c1ccccc1)c1ccccc1)C(=O)NCc1ccc(O)cc1` gave a pKi of less than 5.00.
Still for that read-out and setting: the value for `O=C(CN1CCC(N2CCCCC2)CC1)c1c(COc2ccc(Cl)cc2)n(CCC2CCNCC2)c2ccccc12` was less than 5.00; that for `Cn1c(COc2ccc(Cl)cc2)c(CN2CCCCC2)c2ccccc21` was less than 5.00.

The target of a further assay is T1, Neuropeptide Y receptor type 5 (Homo sapiens, UniProt Q15761).
T1 sequence (Q15761 whole entry): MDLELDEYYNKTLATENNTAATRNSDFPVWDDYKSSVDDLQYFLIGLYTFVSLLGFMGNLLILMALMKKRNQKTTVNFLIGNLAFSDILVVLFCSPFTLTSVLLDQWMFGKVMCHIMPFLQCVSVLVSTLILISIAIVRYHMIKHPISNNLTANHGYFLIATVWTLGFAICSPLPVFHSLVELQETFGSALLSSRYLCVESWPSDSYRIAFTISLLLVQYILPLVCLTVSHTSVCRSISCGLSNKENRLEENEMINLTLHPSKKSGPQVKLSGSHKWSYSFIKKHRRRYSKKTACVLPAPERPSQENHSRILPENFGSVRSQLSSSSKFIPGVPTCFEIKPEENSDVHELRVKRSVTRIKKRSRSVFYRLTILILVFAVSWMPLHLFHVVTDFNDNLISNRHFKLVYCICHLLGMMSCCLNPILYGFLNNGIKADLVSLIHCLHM
The assay can be described thus: Affinity for human Neuropeptide Y receptor type 5.
`Clc1ccc(OCc2c(CN3CCC(N4CCCCC4)CC3)c3ccccc3n2CCN2CCCCC2)cc1` gave a pKi of less than 5.00.
For the compound `Cn1c(COc2ccc(Cl)cc2)c(CCN2CCCCC2)c2ccccc21`, the negative-log Ki (pKi) was less than 5.00.
The compound `Cn1c(COc2ccc(Cl)cc2)c(CCN2CCC(N3CCCCC3)CC2)c2ccccc21` showed a negative logarithm of the Ki (pKi) of less than 5.00.
On the same count and under the same terms, the value for `Cn1c(COc2ccc(Cl)cc2Cl)c(CN2CCCCC2)c2ccccc21` was less than 5.00; that for `Cn1c(COc2ccc(Cl)cc2)c(CN2CCC(N3CCCCC3)CC2)c2ccccc21` was less than 5.00; that for `Cn1c(COc2ccc(Cl)cc2)c(C(=O)CN2CCC(N3CCCCC3)CC2)c2ccccc21` was less than 5.00.
As for `O=C(CN1CCC(N2CCCCC2)CC1)c1c(COc2ccc(Cl)cc2)n(CCC[C@@H]2CCCNC2)c2ccccc12`, the negative-log Ki (pKi) is less than 5.00.
Compound `Cn1c(COc2ccc(Cl)cc2)c(C(=O)C(=O)N2CCC(N3CCCCC3)CC2)c2ccccc21` had a pKi of less than 5.00.
Still for that read-out and setting: with `O=C(CN1CCC(N2CCCCC2)CC1)c1c(COc2ccc(Cl)cc2)n(CCC[C@H]2CCCNC2)c2ccccc12` the figure was less than 5.00; with `N=C(N)NCCC[C@@H](NC(=O)C(c1ccccc1)c1ccccc1)C(=O)NCc1ccc(O)cc1`, less than 5.00; with `O=C(CN1CCC(N2CCCCC2)CC1)c1c(COc2ccc(Cl)cc2)n(CCC2CCNCC2)c2ccccc12`, less than 5.00.
For the compound `Cn1c(COc2ccc(Cl)cc2)c(CN2CCCCC2)c2ccccc21`, the pKi is less than 5.00.

In a further assay the target is T2, Neuropeptide Y receptor type 1 (Homo sapiens, UniProt P25929).
T2 sequence (P25929 whole entry): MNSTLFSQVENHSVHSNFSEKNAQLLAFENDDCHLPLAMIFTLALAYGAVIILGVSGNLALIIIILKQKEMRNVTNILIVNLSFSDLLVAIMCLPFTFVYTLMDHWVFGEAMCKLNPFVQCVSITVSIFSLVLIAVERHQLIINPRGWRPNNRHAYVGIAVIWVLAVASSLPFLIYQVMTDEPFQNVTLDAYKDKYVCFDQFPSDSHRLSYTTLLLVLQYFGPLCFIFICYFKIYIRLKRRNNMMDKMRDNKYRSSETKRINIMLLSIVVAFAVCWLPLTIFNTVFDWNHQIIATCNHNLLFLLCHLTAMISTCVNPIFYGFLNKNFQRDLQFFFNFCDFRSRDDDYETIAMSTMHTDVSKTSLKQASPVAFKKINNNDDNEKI
The assay can be described thus: Binding affinity for Neuropeptide Y receptor type 1 expressed in AV-12 cells. It counts as cell-based, AV12.
Consider `Clc1ccc(OCc2c(CN3CCC(N4CCCCC4)CC3)c3ccccc3n2CCN2CCCCC2)cc1`, for which the negative logarithm of the Ki (pKi) is 7.01.
On the same count and under the same terms, with `Cn1c(COc2ccc(Cl)cc2)c(CCN2CCCCC2)c2ccccc21` the figure was 5.54; with `Cn1c(COc2ccc(Cl)cc2)c(CCN2CCC(N3CCCCC3)CC2)c2ccccc21`, 7.03; with `Cn1c(COc2ccc(Cl)cc2Cl)c(CN2CCCCC2)c2ccccc21`, 5.90.
`Cn1c(COc2ccc(Cl)cc2)c(CN2CCC(N3CCCCC3)CC2)c2ccccc21` gave a pKi of 6.25.
On the same count and under the same terms, with `Cn1c(COc2ccc(Cl)cc2)c(C(=O)CN2CCC(N3CCCCC3)CC2)c2ccccc21` the figure was 7.59; with `O=C(CN1CCC(N2CCCCC2)CC1)c1c(COc2ccc(Cl)cc2)n(CCC[C@@H]2CCCNC2)c2ccccc12`, 9.12; with `Cn1c(COc2ccc(Cl)cc2)c(C(=O)C(=O)N2CCC(N3CCCCC3)CC2)c2ccccc21`, 6.36.
On to `O=C(CN1CCC(N2CCCCC2)CC1)c1c(COc2ccc(Cl)cc2)n(CCC[C@H]2CCCNC2)c2ccccc12`, for which the pKi is 8.85.
On the same count and under the same terms, with `O=C(CN1CCC(N2CCCCC2)CC1)c1c(COc2ccc(Cl)cc2)n(CCC2CCNCC2)c2ccccc12` the figure was 8.72.
As to `Cn1c(COc2ccc(Cl)cc2)c(CN2CCCCC2)c2ccccc21`, the negative-log Ki (pKi) is 5.64.

A further assay concerns the target T2, Neuropeptide Y receptor type 1. The assay can be described thus: Ability to reverse Neuropeptide Y receptor type 1-induced inhibition of forskolin-induced inhibition of forskolin-stimulated cAMP. It counts as functional.
`O=C(CN1CCC(N2CCCCC2)CC1)c1c(COc2ccc(Cl)cc2)n(CCC[C@@H]2CCCNC2)c2ccccc12` showed a negative-log Ki (pKi) of 8.74.

For the next assay, the system named is Mus musculus. The assay can be described thus: Ability to block increase in food consumption elicited by NPY (230 pmol, icv) into lateral ventricle of mice. It is filed as functional.
On to `O=C(CN1CCC(N2CCCCC2)CC1)c1c(COc2ccc(Cl)cc2)n(CCC[C@@H]2CCCNC2)c2ccccc12`, for which the ED50 was 0.017 µM.

A further assay addresses T3, Neuropeptide Y receptor type 2 (Homo sapiens, UniProt P49146).
T3 sequence (P49146 whole entry): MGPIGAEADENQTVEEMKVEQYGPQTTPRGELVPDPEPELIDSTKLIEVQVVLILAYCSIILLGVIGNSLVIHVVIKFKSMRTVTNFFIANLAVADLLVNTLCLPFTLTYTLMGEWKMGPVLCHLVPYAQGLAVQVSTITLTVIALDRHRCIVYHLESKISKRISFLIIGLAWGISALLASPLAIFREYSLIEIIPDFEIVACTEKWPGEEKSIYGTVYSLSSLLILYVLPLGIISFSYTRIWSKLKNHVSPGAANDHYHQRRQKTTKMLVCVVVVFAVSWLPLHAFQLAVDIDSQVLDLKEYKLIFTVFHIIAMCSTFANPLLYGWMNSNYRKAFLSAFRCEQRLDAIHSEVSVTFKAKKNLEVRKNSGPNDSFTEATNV
The assay can be described thus: Affinity for human Neuropeptide Y receptor type 2.
In the case of `Clc1ccc(OCc2c(CN3CCC(N4CCCCC4)CC3)c3ccccc3n2CCN2CCCCC2)cc1`, the negative-log Ki (pKi) is less than 5.00.
Consider `Cn1c(COc2ccc(Cl)cc2)c(CCN2CCCCC2)c2ccccc21`, for which the negative-log Ki (pKi) was less than 5.00.
Same read-out and setting: the value for `Cn1c(COc2ccc(Cl)cc2)c(CCN2CCC(N3CCCCC3)CC2)c2ccccc21` was less than 5.00.
Still for that read-out and setting: the value for `Cn1c(COc2ccc(Cl)cc2Cl)c(CN2CCCCC2)c2ccccc21` was less than 5.00.
On the same count and under the same terms, the value for `Cn1c(COc2ccc(Cl)cc2)c(CN2CCC(N3CCCCC3)CC2)c2ccccc21` was less than 5.00; that for `Cn1c(COc2ccc(Cl)cc2)c(C(=O)CN2CCC(N3CCCCC3)CC2)c2ccccc21` was less than 5.00.
Take `O=C(CN1CCC(N2CCCCC2)CC1)c1c(COc2ccc(Cl)cc2)n(CCC[C@@H]2CCCNC2)c2ccccc12`: the pKi was less than 5.00.
On the same count and under the same terms, the value for `Cn1c(COc2ccc(Cl)cc2)c(C(=O)C(=O)N2CCC(N3CCCCC3)CC2)c2ccccc21` was less than 5.00.
Still for that read-out and setting: with `O=C(CN1CCC(N2CCCCC2)CC1)c1c(COc2ccc(Cl)cc2)n(CCC[C@H]2CCCNC2)c2ccccc12` the figure was less than 5.00.
The same measure, in the same setting: with `N=C(N)NCCC[C@@H](NC(=O)C(c1ccccc1)c1ccccc1)C(=O)NCc1ccc(O)cc1` the figure was less than 5.00; with `O=C(CN1CCC(N2CCCCC2)CC1)c1c(COc2ccc(Cl)cc2)n(CCC2CCNCC2)c2ccccc12`, less than 5.00.
Turning to `Cn1c(COc2ccc(Cl)cc2)c(CN2CCCCC2)c2ccccc21`, the pKi was less than 5.00.

Another assay concerns SK-N-MC. The assay can be described thus: Ability to reverse NPY-induced intracellular [Ca2+] mobilization in SK-N-MC cells. It is filed as functional, cell-based, Homo sapiens.
For the compound `O=C(CN1CCC(N2CCCCC2)CC1)c1c(COc2ccc(Cl)cc2)n(CCC[C@@H]2CCCNC2)c2ccccc12`, the negative-log Ki (pKi) was 8.49.

The record behind these values is ChEMBL document CHEMBL1130228, “Potent and selective 1,2,3-trisubstituted indole NPY Y-1 antagonists” (J Med Chem, 1997).
